The record followed here is patent US7105620B2, “3,4-alkylenedioxy-thiophene copolymers” (Agfa Gevaert, priority 2001, dated 2006).

This series is described as follows: Solubility of 3,4-alkylenedioxythiophene compounds in water at 25° C. It is filed as physicochemical. To be noted: visually adjudged dissolved; for solubility: thermodynamic from solid. On the procedure: The solubility of the 3,4-alkylenedioxythiophene compounds was determined by adding a particular quantity thereof with stirring to sufficient water so that all the monomer was visually adjudged to have dissolved.

Values after ≈ are worked out from the molar mass of the structure shown.

With `OCC1COc2cscc2O1` (stereo not drawn) [M1, (2,3-dihydro-thieno[3,4-b][1,4]dioxin-2-yl)-methanol], the solubility (as a rule, how much of the substance goes into solution per volume) is approximately 10000 µg/mL (≈ 58.1 mM).

Regarding `OC1COc2cscc2OC1` [M2, 3,4-dihydro-2H-thieno[3,4-b][1,4]dioxepin-3-ol], the solubility was approximately 8200 µg/mL (≈ 47.6 mM).

In turn, `O=C(O)COCC1COc2cscc2O1` (stereo not drawn) [M3, (2,3-dihydro-thieno[3,4-b][1,4]dioxin-2-yl-methoxy)-acetic acid] displayed a solubility of approximately 2700 µg/mL (≈ 11.7 mM).

For the compound `COCCOCCOCCOCC1COc2cscc2O1` (stereo not drawn) [M4, 2-{2-[2-(2-methoxy-ethoxy)-ethoxy]-ethoxymethyl}-2,3-dihydro-thieno[3,4-b][1,4]dioxine], the solubility is approximately 4500 µg/mL (≈ 14.1 mM).

Consider `O=S(=O)([O-])CCCCOCC1COc2cscc2O1.[Na+]` (stereo not drawn) [M6, 4-(2,3-dihydro-thieno[3,4-b][1,4]dioxin-2-ylmethoxy)-butane-1-sulfonic acid sodium salt], for which the solubility is approximately 167000 µg/mL.

“Polyethylene Oxide Substituted (2,3-dihydro-thieno[3,4-b][1,4]dioxin-2-yl)-methanol [M5]”: the “Solubility in water at 25° C.” value is “ca. >128 g/L”.
